Source: article PMC7168264, “Modified Aminoglycosides Bind Nucleic Acids in High-Molecular-Weight Complexes” (Antibiotics, 2020)
“And” between values parts separate entries of the source, which are not always exact repeats. Identical values can stand only once. Like-named read-outs stand apart in the source and are kept apart here.

Assays:
HIV-1 RT WT = HIV-1 RT WT (Human immunodeficiency virus type 1 group M subtype B, UniProt P04585); assay: biochemical
Method: (§1) Plasmids pET-RT66 and p6H-RT51, which overexpress HIV-1 RT subunits p66 and His6-tagged p51, were generously provided by Samuel Wilson (NIH). Mutations K103N and Y181C were each introduced into pET-RT66 using QuikChange^TM mutagenesis. Subunits p66 and His6-p51 were overproduced in E. coli strains BL21/DE3 and DH5α, respectively, and the RT heterodimer (WT or mutant forms) was reconstituted in mixed lysates and purified essentially as described. Each overexpression strain was grown in LB medium with appropriate antibiotics at 37 °C until the culture reached an OD600 of 0.6, IPTG (0.5 mM) was added, and the culture was further incubated for 3.5 h to allow ample protein production. Cells (from 4 L culture) were pelleted and stored at −20 °C. All subsequent steps were performed at 4 °C. Each cell pellet was resuspended in 20 mL buffer A [50 mM Tris-HCl (pH 7.9), 60 mM NaCl, 10% glycerol, 1 mM βME, and protease inhibitors (Protease Inhibitor Cocktail, Roche Diagnostics)], and the cells were lysed using a French Press. The lysate was clarified by centrifugation at 5900 g for 15 min, and the protein concentration of each lysate was estimated using the Bradford assay. Based on these estimates, each p66 strain lysate was separately mixed with p51 strain lysate in a 3:1 ratio. Each mixture was passed through a Q-Sepharose column (2 mL, Bio-Rad), pre-equilibrated with buffer A, and the flow-through (containing HIV-1 RT) was collected. NaCl (0.5 M), imidazole (10 mM), and 4 mL of His-Bind nickel column resin (Ni-NTA Agarose, QIAGEN) pre-equilibrated in buffer B [50 mM Tris-HCl (pH 7.9), 500 mM NaCl, 10 mM imidazole, 10% glycerol, and 1 mM βME] were added, and the mixture was rotated for 1 h. The resin was poured into a column and washed with 10 column volumes (CV) of buffer B, 10 CV of buffer C [50 mM Tris-HCl (pH 7.9), 1 M NaCl, 10 mM imidazole, 10% glycerol, and 1 mM βME], and 10 CV of buffer D [50 mM Tris-HCl (pH 7.9), 1 M NaCl, 15 mM imidazole, 10% glycerol, and 1 mM βME]. Proteins were eluted from the column with an imidazole gradient (10–500 mM) in buffer B. Fractions (0.5 mL) were collected, and DTT (2 mM) and EDTA (5 mM) were added to each fraction. Fractions were analyzed by SDS-PAGE, and those containing p66 and p51 at a 1:1 ratio were pooled. The RT was further purified using a FPLC RESOURCE S column (6 mL, GE Healthcare). The protein was bound to the column, washed with 10 CV of buffer E [50 mM Tris-HCl (pH 6.5), 60 mM NaCl, 10% glycerol, and 1 mM βME], and eluted using a NaCl gradient. Fractions (0.5 mL) containing purified RT with p66 and p51 subunits at a 1:1 ratio were pooled, dialyzed against buffer F [50 mM Tris-HCl (pH 7.5), 100 mM NaCl, 1 mM βME, and 10% glycerol], and stored at −20 °C.
(§2) To assay multi-nucleotide incorporation by RT, 5′-[^32P]-labeled primer (~0.05 µM) was annealed to mRNA (0.33 µM, unless otherwise indicated), RT (HIV-1 or AMV; 32 nM) and the four deoxynucleotide triphosphates (dNTPs; 375 µM each) in buffer G [10 mM Tris-HCl (pH 7.5), 60 mM NH4Cl, 10 mM MgCl2, and 6 mM βME] were added, in the absence or presence of inhibitor (as indicated), and reactions were incubated at 37 °C for 10 min. An equal volume of stop buffer (95% formamide, 20 mM EDTA, 0.05% xylene cyanol, and 0.05% bromophenol blue) was added, and products were analyzed by denaturing 7% PAGE. The relative amount of the full-length cDNA product (y) was plotted as a function of inhibitor concentration, and the data were fit to the modified dose response equation y = a + b/[1 + (x/c)]

HIV-1 RT K103N = molecular target: T1, HIV-1 RT K103N (Human immunodeficiency virus type 1 group M subtype B, UniProt P04585, K690N); assay: Multi-nucleotide primer extension assay, K103N HIV-1 RT; type: biochemical; details: mean ± SEM from 3 or more independent experiments
T1 construct: overexpress HIV-1 RT subunits p66 and His6-tagged p51; made in house; host or cells: E. coli BL21/DE3 (p66) and DH5α (His6-p51)
Method: as §1, §2

HIV-1 RT Y181C = molecular target: T2, HIV-1 RT Y181C (Human immunodeficiency virus type 1 group M subtype B, UniProt P04585, Y768C); assay: Multi-nucleotide primer extension assay, Y181C HIV-1 RT; type: biochemical
T2 construct: overexpress HIV-1 RT subunits p66 and His6-tagged p51; made in house; host or cells: E. coli BL21/DE3 (p66) and DH5α (His6-p51)
Method: as §1, §2

[1] = molecular target: Radiolabeled DNA oligonucleotide; assay: Ultrafiltration binding experiment, DNA oligonucleotide; details: fraction in complexes >300 kDa by ultrafiltration (300 kDa MWCO), buffer H, 25 °C, 15 min, read-out: apparent KD, DNA oligonucleotide
Method: (§3) For binding reactions, components were incubated in buffer H at 25 °C for 15 min. The fraction of bound 5′-[^32P]-labeled nucleic acid was evaluated using native 6% PAGE or ultrafiltration devices (Nanosep Omega, PALL Life Sciences).

[2] = molecular target: Radiolabeled RNA oligonucleotide; assay: Ultrafiltration binding experiment, RNA oligonucleotide; details: fraction in complexes >300 kDa by ultrafiltration (300 kDa MWCO), buffer H, 25 °C, 15 min, read-out: apparent KD, RNA oligonucleotide
Method: as §3

[3] = system: radiolabeled 18mer DNA oligonucleotide; assay: Gel mobility shift experiment (native PAGE); type: binding; details: compound 100 µM preincubated with 18mer DNA, native gel electrophoresis
Method: as §3

[4] = system: avian myeloblastosis virus (AMV) reverse transcriptase (RT); assay: Multi-nucleotide primer extension assay, AMV RT; type: biochemical; details: primer extension on RNA template, 10 min at 37 °C; read-out: IC50, full-length cDNA product, AMV RT
Method: as §2

AMV RT = assay: Single-nucleotide incorporation kinetics (quench-flow), AMV RT; type: biochemical, avian myeloblastosis virus; details: read-out: IC50, amplitude of single-nucleotide incorporation
Method: (§4) Single-nucleotide incorporation by RT was measured using a quench-flow machine (KinTek RQF-3). Typically, 5′-[^32P]-labeled primer (<0.05 µM) was annealed to mRNA (0.2 µM), equilibrated in buffer H [Tris-HCl (pH 7.5), 80 mM KCl, 20 mM MgCl2, 2 mM DTT] with RT (AMV or HIV-1, as indicated) in the absence or presence of inhibitor (as indicated), and rapidly mixed with dATP (variable concentration, as indicated). Each reaction was quenched with 0.5 M EDTA at various time points; the data were plotted and fit to a single exponential equation to obtain observed rate and amplitude.

HIV-1 RT = molecular target: T3, HIV-1 RT (Human immunodeficiency virus type 1 group M subtype B, UniProt P04585); assay: Order-of-addition single-nucleotide incorporation, HIV-1 RT; type: biochemical; details: 20 min 37 °C, then combined 1 min
T3 construct: overexpress HIV-1 RT subunits p66 and His6-tagged p51; made in house; host or cells: E. coli BL21/DE3 (p66) and DH5α (His6-p51)
Method: as §4

SMILES | IC50 (HIV-1 RT WT) [nM] | IC50 (HIV-1 RT K103N) [µM] | IC50 (HIV-1 RT Y181C) [nM] | Kd ([1]; listed as KAN-C12) [nM] | Kd [1] [nM] | Kd ([2]; listed as KAN-C12) [nM] | Kd [2] [nM] | Gel mobility shift of oligonucleotide [3] | IC50 [4] | IC50 (AMV RT; dATP at 10 µM) [nM] | IC50 (AMV RT; dATP at 150 µM) [nM] | Product formation, single-nucleotide incorporation (HIV-1 RT; compound preincubated with RT) | Product formation, single-nucleotide incorporation (HIV-1 RT; compound preincubated with primer:template in the absence of RT)
CCCCCCCCSC[C@H]1O[C@H](O[C@@H]2[C@@H](O)[C@H](O[C@H]3O[C@H](CN)[C@@H](O)[C@H](O)[C@H]3N)[C@@H](N)C[C@H]2N)[C@H](O)[C@@H](N)[C@@H]1O [KANB-C8] | 8000 ± 3000 | 7 ± 1 | 8000 ± 2000 |  |  |  |  |  |  |  |  |  | 
CCCCCCCCCCSC[C@H]1O[C@H](O[C@@H]2[C@@H](O)[C@H](O[C@H]3O[C@H](CN)[C@@H](O)[C@H](O)[C@H]3N)[C@@H](N)C[C@H]2N)[C@H](O)[C@@H](N)[C@@H]1O [KANB-C10] | 3800 ± 300 | 1.9 ± 0.3 | 1000 ± 600 |  |  |  |  |  |  |  |  |  | 
CCCCCCCCCCCCSC[C@H]1O[C@H](O[C@@H]2[C@@H](O)[C@H](O[C@H]3O[C@H](CN)[C@@H](O)[C@H](O)[C@H]3N)[C@@H](N)C[C@H]2N)[C@H](O)[C@@H](N)[C@@H]1O [KANB-C12] | 1900 ± 300 | 2 ± 0.2 | 500 ± 300 | 600 | ~1000 | 1100 | ~1000 | all signal was shifted to the well |  |  |  |  | 
CCCCCCCCCCCCSC[C@H]1O[C@H](O[C@@H]2[C@@H](O)[C@H](O[C@H]3O[C@H](CN)[C@@H](O)C[C@H]3N)[C@@H](N)C[C@H]2N)[C@H](O)[C@@H](N)[C@@H]1O [TOB-C12] | 300 ± 100 | 0.6 ± 0.1 | 500 ± 100 |  |  |  |  |  | ~1000 nM and 1600 nM | 13000 | 17000 | hindered product formation to a lesser degree | no detectable product
CCCCCCCCCCCCCCSC[C@H]1O[C@H](O[C@@H]2[C@@H](O)[C@H](O[C@H]3O[C@H](CN)[C@@H](O)C[C@H]3N)[C@@H](N)C[C@H]2N)[C@H](O)[C@@H](N)[C@@H]1O [TOB-C14] | 1900 ± 300 | 1.2 ± 0.6 | 1400 ± 400 |  |  |  |  |  | ~1000 nM and 1100 nM |  |  |  | 
NC[C@H]1O[C@H](O[C@H]2[C@H](O)[C@@H](O[C@H]3O[C@H](CSc4ccc5ccccc5c4)[C@@H](O)[C@H](N)[C@H]3O)[C@H](N)C[C@@H]2N)[C@H](N)C[C@@H]1O [TOB-Nap] | 40000 ± 5000 | 40 ± 11 | 12000 ± 4000 |  |  |  |  |  | 23000 nM |  |  |  | 
